Assay results: patent US8916557B2, “Substituted 4-Aryl-N-phenyl-1,3,5-triazin-2-amines” (Bayer Intellectual Property GmbH, priority 2011, dated 2014)

Key:
[1] = system: HeLa human cervical tumour cells; assay: Proliferation assay (crystal violet), HeLa; format: cell-based; conditions: read-out: Inhibition of HeLa cell proliferation
Procedure: Cultivated tumour cells (NCI-H460, human non-small cell lung carcinoma cells, ATCC HTB-177; DU 145, hormone-independent human prostate carcinoma cells, ATCC HTB-81; HeLa-MaTu, human cervical carcinoma cells, EPO-GmbH, Berlin; HeLa-MaTu-ADR, multidrug-resistant human cervical carcinoma cells, EPO-GmbH, Berlin; HeLa human cervical tumour cells, ATCC CCL-2; Caco-2 human colorectal carcinoma, ATCC HTB-37; B16F10 mouse melanoma cells, ATCC CRL-6475) were plated at a density of 5000 cells/well (DU145, HeLa-MaTu-ADR), 3000 cells/well (NCI-H460, HeLa-MaTu, HeLa), 1500 cells/well (Caco-2), or 1000 cells/well (B16F10) in a 96-well multititer plate in 200 μL of their respective growth medium supplemented 10% fetal calf serum. After 24 hours, the cells of one plate (zero-point plate) were stained with crystal violet (see below), while the medium of the other plates was replaced by fresh culture medium (200 μl), to which the test substances were added in various concentrations (0 μM, as well as in the range of 0.001-10 μM; the final concentration of the solvent dimethyl sulfoxide was 0.5%). The cells were incubated for 4 days in the presence of test substances. Cell proliferation was determined by staining the cells with crystal violet: the cells were fixed by adding 20 μl/measuring point of an 11% glutaric aldehyde solution for 15 minutes at room temperature. After three washing cycles of the fixed cells with water, the plates were dried at room temperature. The cells were stained by adding 100 μl/measuring point of a 0.1% crystal violet solution (pH 3.0). After three washing cycles of the stained cells with water, the plates were dried at room temperature. The dye was dissolved by adding 100 μl/measuring point of a 10% acetic acid solution. The extinction was determined by photometry at a wavelength of 595 nm. The change of cell number, in percent, was calculated by normalization of the measured values to the extinction values of the zero-point plate (=0%) and the extinction of the untreated (0 μm) cells (=100%). The IC50 values were determined by means of a 4 parameter fit.

CDK2/CycE = molecular target: T1, CDK2/CycE (Homo sapiens, UniProt P24941); assay: CDK2/CycE kinase assay (TR-FRET); format: biochemical; conditions: Method 2, 10 μM ATP
T1 construct: GST; purchased ProQinase GmbH (Freiburg, Germany); host or cells: insect cells (Sf9)
Text: 2. CDK2/CycE Kinase Assay:
CDK2/CycE-inhibitory activity of compounds of the present invention was quantified employing the CDK2/CycE TR-FRET assay as described in the following paragraphs:
Recombinant fusion proteins of GST and human CDK2 and of GST and human CycE, expressed in insect cells (Sf9) and purified by Glutathion-Sepharose affinity chromatography, were purchased from ProQinase GmbH (Freiburg, Germany). As substrate for the kinase reaction biotinylated peptide biotin-Ttds-[…] (C-terminus in amid form) was used which can be purchased e.g. form the company JERINI Peptide Technologies (Berlin, Germany).
For the assay 50 nl of a 100fold concentrated solution of the test compound in DMSO was pipetted into a black low volume 384well microtiter plate (Greiner Bio-One, Frickenhausen, Germany), 2 μl of a solution of CDK2/CycE in aqueous assay buffer [50 mM Tris/HCl pH 8.0, 10 mM MgCl2, 1.0 mM dithiothreitol, 0.1 mM sodium ortho-vanadate, 0.01% (v/v) Nonidet-P40 (Sigma)] were added and the mixture was incubated for […] at 22° C. to allow pre-binding of the test compounds to the enzyme before the start of the kinase reaction. Then the kinase reaction was started by the addition of 3 μl of a solution of adenosine-tri-phosphate (ATP, 16.7 μM=>final conc. in the 5 it assay volume is 10 μM) and substrate (1.25 μM=>final conc. in the 5 it assay volume is 0.75 μM) in assay buffer and the resulting mixture was incubated for a reaction time of […] at 22° C. The concentration of CDK2/CycE was adjusted depending of the activity of the enzyme lot and was chosen appropriate to have the assay in the linear range, typical concentrations were in the range of 130 ng/ml. The reaction was stopped by the addition of 5 it of a solution of TR-FRET detection reagents (0.2 μM streptavidine-XL665 [Cisbio Bioassays, Codolet, France] and 1 nM anti-RB(pSer807/pSer811)-antibody from BD Pharmingen [#558389] and 1.2 nM LANCE EU-W1024 labeled anti-mouse IgG antibody [Perkin-Elmer, product no. AD0077]) in an aqueous EDTA-solution (100 mM EDTA, 0.2% (w/v) bovine serum albumin in 100 mM HEPES/NaOH pH 7.0).
(§1) The resulting mixture was incubated 1 h at 22° C. to allow the formation of complex between the phosphorylated biotinylated peptide and the detection reagents. Subsequently the amount of phosphorylated substrate was evaluated by measurement of the resonance energy transfer from the Eu-chelate to the streptavidine-XL. Therefore, the fluorescence emissions at 620 nm and 665 nm after excitation at 350 nm was measured in a TR-FRET reader, e.g. a Rubystar (BMG Labtechnologies, Offenburg, Germany) or a Viewlux (Perkin-Elmer). The ratio of the emissions at 665 nm and at 622 nm was taken as the measure for the amount of phosphorylated substrate.

CDK9/CycT1 = molecular target: T2, CDK9/CycT1 (Homo sapiens, UniProt P50750); assay: CDK9/CycT1 kinase assay (TR-FRET); format: biochemical; conditions: Method 1, 10 μM ATP
T2 construct: Recombinant full-length His-tagged human CDK9 and CycT1; His; purchased Invitrogen PV4131; host or cells: insect cells
Text: 1. CDK9/CycT1 Kinase Assay:
CDK9/CycT1-inhibitory activity of compounds of the present invention was quantified employing the CDK9/CycT1 TR-FRET assay as described in the following paragraphs:
Recombinant full-length His-tagged human CDK9 and CycT1, expressed in insect cells and purified by Ni-NTA affinity chromatography, were purchased from Invitrogen (Cat. No PV4131). As substrate for the kinase reaction biotinylated peptide biotin-Ttds-[…] (C-terminus in amid form) was used which can be purchased e.g. form the company JERINI Peptide Technologies (Berlin, Germany). For the assay 50 nl of a 100fold concentrated solution of the test compound in DMSO was pipetted into a black low volume 384well microtiter plate (Greiner Bio-One, Frickenhausen, Germany), 2 μl of a solution of CDK9/CycT1 in aqueous assay buffer [50 mM Tris/HCl pH 8.0, 10 mM MgCl2, 1.0 mM dithiothreitol, 0.1 mM sodium ortho-vanadate, 0.01% (v/v) Nonidet-P40 (Sigma)] were added and the mixture was incubated for 15 min at 22° C. to allow pre-binding of the test compounds to the enzyme before the start of the kinase reaction. Then the kinase reaction was started by the addition of 3 μl of a solution of adenosine-tri-phosphate (ATP, 16.7 μM=>final conc. in the 5 μl assay volume is 10 μM) and substrate (1.67 μM=>final conc. in the 5 μl assay volume is 1 μM) in assay buffer and the resulting mixture was incubated for a reaction time of 25 min at 22° C. The concentration of CDK9/CycT1 was adjusted depending of the activity of the enzyme lot and was chosen appropriate to have the assay in the linear range, typical concentrations were in the range of 1 μg/ml. The reaction was stopped by the addition of 5 μl of a solution of TR-FRET detection reagents (0.2 μM streptavidine-XL665 [Cisbio Bioassays, Codolet, France] and 1 nM anti-RB(pSer807/pSer811)-antibody from BD Pharmingen [#558389] and 1.2 nM LANCE EU-W1024 labeled anti-mouse IgG antibody [Perkin-Elmer, product no. AD0077]) in an aqueous EDTA-solution (100 mM EDTA, 0.2% (w/v) bovine serum albumin in 100 mM HEPES/NaOH pH 7.0).
as §1, with “HTRF” for “TR-FRET”

T2 sequence (P50750 whole entry): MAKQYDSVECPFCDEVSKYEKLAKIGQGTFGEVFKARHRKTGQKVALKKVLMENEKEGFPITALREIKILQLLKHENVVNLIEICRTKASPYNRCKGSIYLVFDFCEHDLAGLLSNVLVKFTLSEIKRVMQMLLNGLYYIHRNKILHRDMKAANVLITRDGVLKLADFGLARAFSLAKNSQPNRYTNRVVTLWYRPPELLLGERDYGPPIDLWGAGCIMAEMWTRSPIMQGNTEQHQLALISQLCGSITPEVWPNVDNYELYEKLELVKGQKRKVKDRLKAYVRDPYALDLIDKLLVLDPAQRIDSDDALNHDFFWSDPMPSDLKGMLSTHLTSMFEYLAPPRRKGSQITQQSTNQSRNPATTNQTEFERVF
T2 sequence (O60563 whole entry partner): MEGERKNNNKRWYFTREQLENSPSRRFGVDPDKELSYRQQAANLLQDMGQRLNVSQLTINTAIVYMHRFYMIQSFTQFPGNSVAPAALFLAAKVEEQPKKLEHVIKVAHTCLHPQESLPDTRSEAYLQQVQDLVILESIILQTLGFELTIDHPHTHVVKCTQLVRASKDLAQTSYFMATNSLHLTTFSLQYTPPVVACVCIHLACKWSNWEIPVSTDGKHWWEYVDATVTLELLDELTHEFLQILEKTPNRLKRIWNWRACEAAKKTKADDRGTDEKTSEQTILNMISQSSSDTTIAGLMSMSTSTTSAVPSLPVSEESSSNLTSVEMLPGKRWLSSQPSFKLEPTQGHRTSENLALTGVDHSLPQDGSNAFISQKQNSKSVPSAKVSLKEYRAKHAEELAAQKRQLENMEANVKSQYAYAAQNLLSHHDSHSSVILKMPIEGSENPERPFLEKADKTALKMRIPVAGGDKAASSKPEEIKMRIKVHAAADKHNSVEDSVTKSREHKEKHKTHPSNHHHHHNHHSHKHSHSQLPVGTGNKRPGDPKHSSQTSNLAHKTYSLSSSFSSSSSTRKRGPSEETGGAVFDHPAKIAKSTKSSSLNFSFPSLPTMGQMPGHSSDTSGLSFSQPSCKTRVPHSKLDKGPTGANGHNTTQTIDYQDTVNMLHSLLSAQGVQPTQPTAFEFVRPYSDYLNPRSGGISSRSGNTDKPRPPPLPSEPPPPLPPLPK

Row | Compound | IC50 [1] [nM] | IC50 (CDK2/CycE) [nM] | IC50 (CDK9/CycT1) [nM]
1 | CCCOc1cc(F)ccc1-c1ncnc(Nc2cccc(CS(C)(=O)=O)c2)n1 [Example 43, 4-(4-Fluoro-2-propoxyphenyl)-N-{3-[(methylsulfonyl)-methyl]phenyl}-1,3,5-triazin-2-amine] | 1100 | 860 | 12
2 | CCCCCOc1cc(F)ccc1-c1ncnc(Nc2cccc(CS(C)(=O)=O)c2)n1 [Example 45, 4-[4-Fluoro-2-(pentyloxy)phenyl]-N-{3-[(methylsulfonyl)-methyl]phenyl}-1,3,5-triazin-2-amine] | 1000 | 990 | 4
3 | CCCCCCOc1cc(F)ccc1-c1ncnc(Nc2cccc(CS(C)(=O)=O)c2)n1 [Example 46, 4-[4-Fluoro-2-(hexyloxy)phenyl]-N-{3-[(methylsulfonyl)methyl]phenyl}-1,3,5-triazin-2-amine] | 2800 | 2700 | 15
4 | CC(C)CCCOc1cc(F)ccc1-c1ncnc(Nc2cccc(CS(C)(=O)=O)c2)n1 [Example 47, 4-{4-Fluoro-2-[(4-methylpentyl)oxy]phenyl}-N-{3-[(methylsulfonyl)-methyl]phenyl}-1,3,5-triazin-2-amine] | 1000 | 1200 | 5
5 | CS(=O)(=O)Cc1cccc(Nc2ncnc(-c3ccc(F)cc3OCCC3CC3)n2)c1 [Example 48, 4-[2-(2-Cyclopropylethoxy)-4-fluorophenyl]-N-{3-[(methylsulfonyl)methyl]phenyl}-1,3,5-triazin-2-amine] | 1000 | 1300 | 29
6 | CC1(COc2cc(F)ccc2-c2ncnc(Nc3cccc(CS(C)(=O)=O)c3)n2)CC1 [Example 49, 4-{4-Fluoro-2-[(1-methylcyclopropyl)methoxy]phenyl}-N-{3-[(methylsulfonyl)-methyl]phenyl}-1,3,5-triazin-2-amine] | 1200 | 640 | 11
7 | COCCOc1cc(F)ccc1-c1ncnc(Nc2cccc(CS(C)(=O)=O)c2)n1 [Example 50, 4-[4-Fluoro-2-(2-methoxyethoxy)phenyl]-N-{3-[(methylsulfonyl)methyl]-phenyl}-1,3,5-triazin-2-amine] | 2900 | 490 | 38
8 | CC(C)CCOc1cc(F)ccc1-c1ncnc(Nc2cccc(CS(C)(=O)=O)c2)n1 [Example 52, 4-[4-Fluoro-2-(3-methylbutoxy)phenyl]-N-{3-[(methylsulfonyl)methyl]phenyl}-1,3,5-triazin-2-amine] | 1200 | 4000 | 16
9 | CS(=O)(=O)Cc1cccc(Nc2ncnc(-c3ccc(F)cc3OCCC3CCCC3)n2)c1 [Example 53, 4-[2-(2-Cyclopentylethoxy)-4-fluorophenyl]-N-{3-[(methylsulfonyl)methyl]phenyl}-1,3,5-triazin-2-amine] | 1300 | 950 | 16
10 | CS(=O)(=O)Cc1cccc(Nc2ncnc(-c3ccc(F)cc3OCCCF)n2)c1 [Example 54, 4-[4-Fluoro-2-(3-fluoropropoxy)phenyl]-N-{3-[(methylsulfonyl)methyl]phenyl}-1,3,5-triazin-2-amine] | 1300 | 1500 | 29
11 | CS(=O)(=O)Cc1cccc(Nc2ncnc(-c3ccc(F)cc3OCC3CCC3)n2)c1 [Example 56, 4-[2-(Cyclobutylmethoxy)-4-fluorophenyl]-N-{3-[(methylsulfonyl)methyl]phenyl}-1,3,5-triazin-2-amine] | 1100 | 1400 | 27
12 | CS(=O)(=O)Cc1cccc(Nc2ncnc(-c3ccc(F)cc3OCC3CCCCC3)n2)c1 [Example 57, 4-[2-(Cyclohexylmethoxy)-4-fluorophenyl]-N-{3-[(methylsulfonyl)methyl]phenyl}-1,3,5-triazin-2-amine] | 1100 | 2400 | 7
13 | CC(C)COc1cc(F)ccc1-c1ncnc(Nc2cccc(CS(C)(=O)=O)c2)n1 [Example 58, 4-[4-Fluoro-2-(2-methylpropoxy)phenyl]-N-{3-[(methylsulfonyl)methyl]phenyl}-1,3,5-triazin-2-amine] | 1700 | 5100 | 46
14 | CS(=O)(=O)Cc1cccc(Nc2ncnc(-c3ccc(F)cc3OCC(F)F)n2)c1 [Example 60, 4-[2-(2,2-Difluoroethoxy)-4-fluorophenyl]-N-{3-[(methylsulfonyl)methyl]phenyl}-1,3,5-triazin-2-amine] | 1100 | 1200 | 22
15 | C[C@@H](Oc1cc(F)ccc1-c1ncnc(Nc2cccc(CS(C)(=O)=O)c2)n1)c1ccc(F)cc1 [Example 67, 4-{4-Fluoro-2-[(1R)-1-(4-fluorophenyl)ethoxy]phenyl}-N-{3-[(methylsulfonyl)-methyl]phenyl}-1,3,5-triazin-2-amine] | 1600 | 1300 | 8
16 | CS(=O)(=O)Cc1cccc(Nc2ncnc(-c3ccc(F)cc3OCc3cccc(C(F)(F)F)c3)n2)c1 [Example 69, 4-(4-Fluoro-2-{[3-(trifluoromethyl)benzyl]oxy}phenyl)-N-{3-[(methylsulfonyl)-methyl]phenyl}-1,3,5-triazin-2-amine] | 1300 | 1300 | 4
17 | COc1cccc(COc2cc(F)ccc2-c2ncnc(Nc3cccc(CS(C)(=O)=O)c3)n2)c1 [Example 70, 4-{4-Fluoro-2-[(3-methoxybenzyl)oxy]phenyl}-N-{3-[(methylsulfonyl)-methyl]phenyl}-1,3,5-triazin-2-amine] | 1300 | 1100 | 14
18 | CS(=O)(=O)Cc1cccc(Nc2ncnc(-c3ccc(F)cc3OCc3ccccc3F)n2)c1 [Example 71, 4-{4-Fluoro-2-[(2-fluorobenzyl)oxy]phenyl}-N-{3-[(methylsulfonyl)-methyl]phenyl}-1,3,5-triazin-2-amine] | 1170 | 2200 | 12
